Assay results published in PubChem BioAssay AID248 (DTP/NCI, 2004).
Inconclusive results and toxic doses are left out. Rule as the data show it: active = T/C of 150% or more; inactive = T/C below 125%.

Tested on: L1210 leukemia ip in BDF1 mice, survival T/C
Experiment: NCI In Vivo Anticancer Drug Screen. Data for tumor model L1210 Leukemia (intraperitoneal) in B6D2F1 (BDF1) mice
Conditions: endpoint: mean survival time, higher = longer survival
Summary of the method: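 Value reflects the ratio of survival in compound-treated mice to survival in vehicle-treated controls, with both groups carrying the same transplanted tumor.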

[1] = dose: 25.0 mg/kg/injection, schedule: Q01DX009 (ip), vehicle: saline
[2] = dose: 25.0 mg/kg/injection, schedule: Q04DX003 (ip), vehicle: saline
[3] = dose: 50.0 mg/kg/injection, schedule: Q04DX003 (ip), vehicle: saline
[4] = dose: 100.0 mg/kg/injection, schedule: Q04DX003 (ip), vehicle: saline
[5] = dose: 200.0 mg/kg/injection, schedule: Q04DX003 (ip), vehicle: saline
[6] = dose: 400.0 mg/kg/injection, schedule: Q04DX003 (ip), vehicle: saline
[7] = dose: 100.0 mg/kg/injection, schedule: Q01DX009 (ip), vehicle: saline
[8] = dose: 200.0 mg/kg/injection, schedule: Q01DX009 (ip), vehicle: saline
[9] = dose: 400.0 mg/kg/injection, schedule: Q01DX009 (ip), vehicle: saline
[10] = dose: 100.0 mg/kg/injection, schedule: Q01DX001 (ip), vehicle: carboxymethylcellulose (CMC)
[11] = dose: 200.0 mg/kg/injection, schedule: Q01DX001 (ip), vehicle: carboxymethylcellulose (CMC)
[12] = dose: 400.0 mg/kg/injection, schedule: Q01DX001 (ip), vehicle: carboxymethylcellulose (CMC)
[13] = dose: 100.0 mg/kg/injection, schedule: Q01DX009 (ip), vehicle: saline with Tween-80
[14] = dose: 200.0 mg/kg/injection, schedule: Q01DX009 (ip), vehicle: saline with Tween-80

Measured: T/C

O=C(Oc1c(Cl)cc(S(=O)(=O)F)cc1Cl)c1ccc([N+](=O)[O-])cc1
inactive: dose: 100.0 mg/kg/injection, schedule: Q04DX002 (ip), vehicle: gum acacia 101 % of control | dose: 200.0 mg/kg/injection, schedule: Q04DX002 (ip), vehicle: gum acacia 99 % of control | dose: 400.0 mg/kg/injection, schedule: Q04DX002 (ip), vehicle: gum acacia 99 % of control

O=C1CC2(CCCCC2)C(=O)N1N1CCCCCC1
inactive: dose: 100.0 mg/kg/injection, schedule: Q01DX001 (ip), vehicle: Klucel (hydroxypropylcellulose) (HPC) 102 % of control | dose: 200.0 mg/kg/injection, schedule: Q01DX001 (ip), vehicle: Klucel (hydroxypropylcellulose) (HPC) 100 % of control | dose: 400.0 mg/kg/injection, schedule: Q01DX001 (ip), vehicle: Klucel (hydroxypropylcellulose) (HPC) 97 % of control

CC(=O)C[P+](c1ccccc1)(c1ccccc1)c1ccccc1
inactive: dose: 12.0 mg/kg/injection, schedule: Q01DX009 (ip), vehicle: saline 96 % of control | dose: 12.0 mg/kg/injection, schedule: Q04DX003 (ip), vehicle: saline 104 % of control | [1] 96 % of control | [2] 94 % of control | dose: 50.0 mg/kg/injection, schedule: Q01DX009 (ip), vehicle: saline 112 % of control | [3] 98 % of control

O=C(O)/C=C/c1ccccc1C(=O)O
inactive: [4] 100 % of control | [5] 91 % of control | [6] 103 % of control

CC(C)=C(Br)CN
inactive: [4] 95 % of control | [5] 108 % of control | [6] 94 % of control

O=C(O)CCCSCCSCCCC(=O)O
inactive: [7] 97 % of control | [8] 103 % of control | [9] 86 % of control

COc1cccc(OC)c1CCO
inactive: dose: 50.0 mg/kg/injection, schedule: Q01DX001 (ip), vehicle: carboxymethylcellulose (CMC) 88 % of control | [10] 102 % of control | [11] 88 % of control | [12] 100 % of control

COc1ccc(/C=N\NC(=O)c2ccncc2)cc1O
inactive: dose: 100.0 mg/kg/injection, schedule: Q04DX002 (ip), vehicle: Klucel (hydroxypropylcellulose) (HPC) 118 % of control | dose: 200.0 mg/kg/injection, schedule: Q04DX002 (ip), vehicle: Klucel (hydroxypropylcellulose) (HPC) 106 % of control | dose: 400.0 mg/kg/injection, schedule: Q04DX002 (ip), vehicle: Klucel (hydroxypropylcellulose) (HPC) 106 % of control

CCC(=O)C(CC)c1ccccc1 (centres undefined)
inactive: [13] 95 % of control | dose: 100.0 mg/kg/injection, schedule: Q04DX003 (ip), vehicle: saline with Tween-80 102 % of control | [14] 94 % of control | dose: 200.0 mg/kg/injection, schedule: Q04DX003 (ip), vehicle: saline with Tween-80 97 % of control | dose: 400.0 mg/kg/injection, schedule: Q01DX009 (ip), vehicle: saline with Tween-80 100 % of control | dose: 400.0 mg/kg/injection, schedule: Q04DX003 (ip), vehicle: saline with Tween-80 97 % of control

O=C(C=C(C(F)(F)F)C(F)(F)F)c1cccs1
inactive: dose: 3.12 mg/kg/injection, schedule: Q01DX009 (ip), vehicle: saline 101 % of control | dose: 6.25 mg/kg/injection, schedule: Q01DX009 (ip), vehicle: saline 101 % of control | dose: 12.5 mg/kg/injection, schedule: Q01DX009 (ip), vehicle: saline 101 % of control | dose: 12.5 mg/kg/injection, schedule: Q04DX003 (ip), vehicle: saline 93 % of control | [1] 110 % of control | [2] 97 % of control | [3] 93 % of control | [4] 98 % of control

CC1CN=C(c2ccc(NC(=O)Nc3ccc(NC(=O)c4ccc(C5=NCC(C)N5)cc4)cc3)cc2)N1 (centres undefined)
inactive: dose: 62.5 mg/kg/injection, schedule: Q01DX Z (oral), vehicle: water 97 % of control | dose: 125.0 mg/kg/injection, schedule: Q01DX Z (oral), vehicle: water 101 % of control | dose: 250.0 mg/kg/injection, schedule: Q01DX Z (oral), vehicle: water 100 % of control | dose: 500.0 mg/kg/injection, schedule: Q01DX Z (oral), vehicle: water 105 % of control

O=C1C=C(Nc2ccc(Cl)cc2)C(=O)c2ccccc21
inactive: dose: 75.0 mg/kg/injection, schedule: Q01DX001 (ip), vehicle: carboxymethylcellulose (CMC) 93 % of control | dose: 300.0 mg/kg/injection, schedule: Q01DX001 (ip), vehicle: carboxymethylcellulose (CMC) 87 % of control

COCCNCCOC
inactive: [3] 106 % of control | [7] 103 % of control | [4] 100 % of control | [8] 98 % of control | [5] 122 % of control | [9] 104 % of control | [6] 103 % of control

CC1CN(Cc2ccccc2)CC(C)N1C(=O)c1ccccc1 (centres undefined)
inactive: dose: 100.0 mg/kg/injection, schedule: Q01DX009 (ip), vehicle: water 95 % of control | dose: 100.0 mg/kg/injection, schedule: Q04DX003 (ip), vehicle: water 109 % of control | dose: 200.0 mg/kg/injection, schedule: Q01DX009 (ip), vehicle: water 93 % of control | dose: 200.0 mg/kg/injection, schedule: Q04DX003 (ip), vehicle: water 113 % of control | dose: 400.0 mg/kg/injection, schedule: Q01DX009 (ip), vehicle: water 104 % of control | dose: 400.0 mg/kg/injection, schedule: Q04DX003 (ip), vehicle: water 110 % of control

COc1ccc(NC(=O)C(Cl)Cl)cc1NC(C)=O
inactive: [10] 96 % of control | [11] 108 % of control | [12] 91 % of control

CC(C)NC(=O)Nc1ccc(F)cc1
inactive: dose: 100.0 mg/kg/injection, schedule: Q01DX009 (ip), vehicle: acetone 92 % of control | dose: 200.0 mg/kg/injection, schedule: Q01DX009 (ip), vehicle: acetone 101 % of control | dose: 400.0 mg/kg/injection, schedule: Q01DX009 (ip), vehicle: acetone 94 % of control

O=C(O)c1ccc(CCCCc2ccccc2)cc1
inactive: dose: 25.0 mg/kg/injection, schedule: Q01DX001 (ip), vehicle: saline with Tween-80 103 % of control | dose: 50.0 mg/kg/injection, schedule: Q01DX001 (ip), vehicle: saline with Tween-80 121 % of control | dose: 100.0 mg/kg/injection, schedule: Q01DX001 (ip), vehicle: saline with Tween-80 107 % of control

NS(=O)(=O)c1ccc(N=Nc2nc3[nH]c(=O)[nH]c(=O)c3[nH]2)cc1
inactive: dose: 50.0 mg/kg/injection, schedule: Q01DX009 (ip), vehicle: saline with Tween-80 97 % of control | [13] 94 % of control | [14] 94 % of control

Cc1ccc(C(=O)C=Nc2ccc(O)cc2)cc1
inactive: dose: 12.5 mg/kg/injection, schedule: Q04DX002 (ip), vehicle: Klucel (hydroxypropylcellulose) (HPC) 94 % of control | dose: 25.0 mg/kg/injection, schedule: Q04DX002 (ip), vehicle: Klucel (hydroxypropylcellulose) (HPC) 97 % of control | dose: 50.0 mg/kg/injection, schedule: Q04DX002 (ip), vehicle: Klucel (hydroxypropylcellulose) (HPC) 102 % of control

Cc1ccc(N2CCN(CC(O)COc3ccccc3Cl)CC2)cc1 (centres undefined)
inactive: dose: 100.0 mg/kg/injection, schedule: Q01DX001 (ip), vehicle: saline 95 % of control | dose: 200.0 mg/kg/injection, schedule: Q01DX001 (ip), vehicle: saline 95 % of control | dose: 400.0 mg/kg/injection, schedule: Q01DX001 (ip), vehicle: saline 95 % of control
